Test results: US20210155670A1, “SYSTEMS AND METHODS FOR THE PREPARATION OF PEPTIDE-MHC-I COMPLEXES WITH NATIVE GLYCAN MODIFICATIONS” (The Regents of the University of California, priority 2019, published 2021)
“Also recorded” adds a separate entry of the source. Where two headings read alike, the source gives them in different places. Ends that are not written are not given here.

Legend:
[1] = molecular target: T1, HLA-A*68:02/TAPBPR complex (Homo sapiens, UniProt P04439+P61769, A269V/D140Y/D185E/E176V/E277Q/E87N/F33Y/G231S/I121R/I166T/I218V/L180W/N151K/P208A/P217A/Q86R/R138H/R169H/R297K/S129P/V36M); test: Native gel shift assay of peptide binding to HLA-A*68:02/TAPBPR complex; details: Example 2, 10-molar excess of peptide
T1 construct: human beta-2 microglobulin signal peptide (N); TEV protease site (C, cleaved yes); FOS leucine zipper (C, cleaved yes); made in house; host or cells: CHO cells
Excerpt: CHO-derived HLA-A*02:01/TAPBPR complexes can be loaded with high-affinity TAX9 and MART-1 peptides (FIG. 11D). […] The two alleles have considerable sequence homology in the peptide-binding groove formed by the α1/α2 domains, resulting in a shared preference for a Val, Leu, Ala or Ile at the peptide anchor position 9, but marked variation at anchor position 2 where HLA-A*02:01 has a preference for Leu while HLA-A*68:02 prefers Thr (FIG. 11A). […] Structure-based modeling (Nerli and Sgourakis, bioRxiv, 2020.03.23.004176 (2020)) confirmed A-pocket hydrogen bonding interactions between peptide anchor position L2 with the K66 sidechain, Y7 with Y99 from HLA-A*02:01, and anchor position T2 with N66 and N63 from HLA-A*68:02 (FIG. 11B). According to the electrophoretic mobility shift assay, all predicted high-affinity peptides bound to HLA-A*02:01 and HLA-A*68:02 resulting in discrete pMHC-I protein bands. (FIG. 11C).
Gels were imaged using an Innotech FluoChem2 system (Genetic Technologies Grover, Mo.).

[2] = molecular target: T2, HLA-A*02:01/TAPBPR complex (Homo sapiens, UniProt P04439+P61769, D140Y/D185E/D98H/E176V/E277Q/G131W/G231S/I119V/I121R/I166T/I218V/N151K/N90K/P208A/P217A/Q86G/Q94H/R138H/R169H); test: Native gel shift assay of peptide binding to HLA-A*02:01/TAPBPR complex
T2 construct: human beta-2 microglobulin signal peptide (N); TEV protease site (C, cleaved yes); FOS leucine zipper (C, cleaved yes); made in house; host or cells: CHO cells (CHO-K1s / CHO-K1s C1s-/-), co-transfected, secreted

[3] = molecular target: T3, HLA-A*24:02/TAPBPR complex (Homo sapiens, UniProt P04439+P61769, D101N/D140Y/E190D/F33S/G103R/G107R/I119L/I121M/L105A/N151K/N90K/Q86E/Q94H/R106L/R138H/R89G/T104I/V100E/W191G/Y123F); test: Native gel electrophoresis of HLA-A*24:02/TAPBPR complex with peptides; type: binding; details: FIG. 14c
T3 construct: human beta-2 microglobulin signal peptide (N); TEV protease site (C, cleaved yes); FOS leucine zipper (C, cleaved yes); made in house; host or cells: CHO cells

[4] = Example 2, 10-fold molar excess of peptide, native gel

With GLLGIGILTV [GM1] the “pMHC-I band formation in electrophoretic mobility shift assay” value [1] was “significant binding”.

In the case of LLFGVPVYV [TAX9], the “native gel band shift of MHC-I (pMHC formation)” value (“native gel band shift of MHC-I” for short) [2] is reported as “resulted in a band shift” and the “pMHC-I band formation in electrophoretic mobility shift assay” value [2, 4] is reported as “formation of discrete bands corresponding to properly conformed pMHC species; also recorded: can be loaded; also recorded: pMHC-I formation”.

RGPGRAFVFI [Peptide P18_I10] was tested, and the “native gel band shift of MHC-I” value [2] was “did not” and the “pMHC-I band formation in electrophoretic mobility shift assay” value [2, 4] was “non-binding”.

RYPLTFGWCF [Nef138-10] was tested, and the “complex dissociation in the presence of peptide, native gel” value [3] was “complex dissociation”.

TLACFVLAAV was tested, and the “pMHC-I band formation in electrophoretic mobility shift assay” value [2] was “little or no binding”.

With VYGFVRACL [PHOX2B] the “complex dissociation in the presence of peptide, native gel” value [3] was “complex dissociation”.

For WLMWLIINL, the “pMHC-I band formation in electrophoretic mobility shift assay” value [2, 4] was “little or no binding”.

For “YPNVNIHNF [NIH p29, non-specific (NS) negative control peptide]”, the “native gel band shift of MHC-I” value ([2]; Example 1, SEC purified unzippered complex, 5:1 molar ratio, 1 h room temperature) was “did not” and the “pMHC-I band formation in electrophoretic mobility shift assay” value [2, 4] was “non-binding”.
